ChEMBL document CHEMBL5338740, “Atropo/Tropo Flexibility: A Tool for Design and Synthesis of Self-Adaptable Inhibitors of Carbonic Anhydrases and Their Antiproliferative Effect” (J Med Chem, 2023)
Activity calls are given as the source filed them. The rule behind the calls is not given here.

How the values were obtained:
[1] = target: Carbonic anhydrase 2 (Homo sapiens, UniProt P00918); assay: Inhibition of recombinant human […] assessed as inhibition constant preincubated for 15 mins by phenol red dye based stopped-flow CO2 hydration assay
[2] = tested on: HeLa; assay: Cytotoxicity against human HeLa cells assessed as inhibition of cell viability for 48 hrs by MTT assay; assay type: functional, cell-based
[3] = tested on: A549; assay: Cytotoxicity against human A549 cells assessed as inhibition of cell viability for 48 hrs by MTT assay; assay type: functional, cell-based; settings: A549, 48 h
[4] = tested on: MCF7; assay: Cytotoxicity against human MCF7 cells assessed as inhibition of cell viability for 48 hrs by MTT assay; assay type: functional, cell-based; settings: for IC50: MCF7, 48 h
[5] = target: Carbonic anhydrase 1 (Homo sapiens, UniProt P00915); assay: Inhibition of recombinant human CA1 assessed as inhibition constant preincubated for 15 mins by phenol red dye based stopped-flow CO2 hydration assay
Chain of Carbonic anhydrase 1 (P00915 whole entry): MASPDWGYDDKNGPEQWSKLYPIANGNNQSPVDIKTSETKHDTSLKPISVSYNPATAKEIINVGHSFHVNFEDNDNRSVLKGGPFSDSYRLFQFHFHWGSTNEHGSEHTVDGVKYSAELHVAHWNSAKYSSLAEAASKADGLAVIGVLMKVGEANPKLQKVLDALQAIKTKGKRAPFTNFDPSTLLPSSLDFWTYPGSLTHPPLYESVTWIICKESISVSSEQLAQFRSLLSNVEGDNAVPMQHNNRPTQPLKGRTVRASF

[6] = target: Carbonic anhydrase 9 (Homo sapiens, UniProt Q16790); assay: Inhibition of recombinant human […] assessed as inhibition constant preincubated for 15 mins by phenol red dye based stopped-flow CO2 hydration assay
[7] = target: Carbonic anhydrase 12 (Homo sapiens, UniProt O43570); assay: Inhibition of recombinant human CA XII (30 to 291 residues) expressed in escherichia coli BL21 assessed as inhibition constant preincubated for 15 mins by phenol red dye based stopped-flow CO2 hydration assay
Chain of Carbonic anhydrase 12 (O43570 whole entry, the tested form may be a part): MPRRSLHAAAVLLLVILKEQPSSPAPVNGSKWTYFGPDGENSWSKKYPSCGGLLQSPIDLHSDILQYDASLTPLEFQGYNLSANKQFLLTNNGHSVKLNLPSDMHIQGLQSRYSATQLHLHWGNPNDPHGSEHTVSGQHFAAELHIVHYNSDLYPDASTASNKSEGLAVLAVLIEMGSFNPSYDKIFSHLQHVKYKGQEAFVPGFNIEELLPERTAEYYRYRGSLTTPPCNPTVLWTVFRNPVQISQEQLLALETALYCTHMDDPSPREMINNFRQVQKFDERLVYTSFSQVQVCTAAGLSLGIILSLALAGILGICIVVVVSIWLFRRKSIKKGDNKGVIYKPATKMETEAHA

Compound | Ki [1] | Ki [5] | Ki [6] | Ki [7] | IC50 [2] | IC50 [3] | IC50 [4] | Activity [2] | Activity [4]
NS(=O)(=O)c1ccc(-c2ccc(-c3cccc4ncccc34)cc2)cc1 | 33.3 nM | 85.8 nM | 72.1 nM | 552 nM | – | – | – | – | –
Cc1cc(-c2cccc(S(N)(=O)=O)c2)cnc1-c1ccnc2ccccc12 | 88.6 nM | 479 nM | 215 nM | 450 nM | – | – | – | – | –
Cc1cc(-c2ccc(S(N)(=O)=O)cc2)cnc1-c1ccnc2ccccc12 | 4.9 nM | 48.9 nM | 167 nM | 247 nM | – | – | – | – | –
Cc1cc(-c2ccc(S(N)(=O)=O)s2)cnc1-c1ccnc2ccccc12 | 3.7 nM | 50 nM | 68.1 nM | 157 nM | 105 µM | 43.5 µM | 16.5 µM | – | –
Cc1cc(-c2ccc(S(N)(=O)=O)s2)ccc1-c1cccc2ncccc12 | 5.7 nM | 71.7 nM | 27.2 nM | 79.4 nM | 31 µM | 22 µM | 32 µM | – | –
Cc1cc(-c2ccc(S(N)(=O)=O)s2)cnc1-c1cccc2ncccc12 | 3.2 nM | 59 nM | 29.8 nM | 86.3 nM | 51 µM | 68 µM | 71 µM | – | –
Cc1cc(-c2ccc(S(N)(=O)=O)cc2)ccc1-c1cccc2ccccc12 | 30.5 nM | 54.8 nM | 75.6 nM | 808 nM | – | – | – | – | –
Cc1cc(-c2cccc(S(N)(=O)=O)c2)ccc1-c1cccc2ccccc12 | 101 nM | 670 nM | 86.2 nM | 386 nM | – | – | – | – | –

More lines, in order of falling Ki [1], values ahead:

Ki [1] | Ki [5] | Ki [6] | Ki [7] | Compound | IC50 [2] | IC50 [3] | IC50 [4] | Activity [2] | Activity [4]
144 nM | 698 nM | 331 nM | 558 nM | NS(=O)(=O)c1cccc(-c2ccc(-c3cccc4ccccc34)cc2)c1 | – | – | – | – | –
58.2 nM | 113 nM | 84.3 nM | 501 nM | NS(=O)(=O)c1ccc(-c2ccc(-c3cccc4ccccc34)cc2)cc1 | – | – | – | – | –
34.8 nM | 67.5 nM | 29.3 nM | 212 nM | Cc1cc(-c2ccc(S(N)(=O)=O)s2)ccc1-c1cccc2ccccc12 | > 500 µM | 102 µM | > 500 µM | – | –
28.7 nM | 92.8 nM | 483 nM | 559 nM | NS(=O)(=O)c1ccc(-c2ccc(-c3cccc4ccccc34)cc2)s1 | 24 µM | 30 µM | 69 µM | – | –
11.3 nM | 84.5 nM | 38.4 nM | 71.8 nM | NS(=O)(=O)c1ccc(-c2ccc(-c3cccc4ncccc34)cc2)s1 | – | – | – | – | –
7.3 nM | 90.5 nM | 29.3 nM | 212 nM | Cc1cc(-c2ccc(S(N)(=O)=O)s2)cnc1-c1cccc2ccccc12 | – | – | – | – | –
5.5 nM | 35.6 nM | 106 nM | 41.8 nM | Cc1cc(-c2ccc(S(N)(=O)=O)s2)ccc1-c1ccnc2ccccc12 | – | – | – | – | –
2.1 nM | 72.5 nM | 61.4 nM | 51 nM | NS(=O)(=O)c1ccc(-c2ccc(-c3ccnc4ccccc34)cn2)s1 | – | > 500 µM | – | inactive | inactive
